Source: US8173808B2, “Substituted naphthalenyl-pyrimidine compounds” (ArQule, Inc., priority 2009, dated 2012)

Key:
[1] = test system: MDA-MB-231; experiment: MTS assay, MDA-MB-231; assay type: cell-based; conditions: Homo sapiens, 72 hours, 1 Percent FBS
Experimental: (§1) Cells were maintained at 37° C., 5% CO2 in DMEM media supplemented with 1% fetal bovine serum, penicillin/streptomycin and fungizone (Invitrogen). Cells were seeded into 96-well tissue culture plates at 3000 per well and cultured at 37° C. for 18 hours. Test compounds were dissolved and diluted to 300× in DMSO then diluted 1:40 in DMEM. Cells were incubated with test compounds for 72 hours followed by incubation with tetrazolium compound (3-(4,5-dimethylthiazol-2-yl)-5-(3-carboxymethoxyphenyl)-2-(4-sulfophenyl)-2H-tetrazolium, inner salt; MTS) and the electron coupling reagent, phenazine methosulfate (PMS) for 4 hours. […] The ability of compounds to inhibit cell growth in this assay is correlated with the reduction of dehydrogenase enzyme activity found in metabolically active cells. The measurement of the absorbance of the formazan was assessed using a Victor (Perkin Elmer) microplate reader at 492 nm. The calculated IC50 value is the concentration of the test compound that causes a 50% decrease in the absorbance.

[2] = test system: DLD-1; experiment: MTS assay, DLD-1; assay type: cell-based; conditions: Homo sapiens, 72 hours, 1 Percent FBS
Experimental: as §1

SMILES	inhibition at 10 µM [1]	inhibition at 10 µM [2]
COc1ccc2cc(-c3ccnc(NCCN(C)C)n3)cc(N3CCOCC3)c2c1 [Compound 8, N′-[4-(6-methoxy-4-morpholin-4-yl-2-naphthyl)pyrimidin-2-yl]-N,N-dimethylethane-1,2-diamine]	45%	–
COc1ccc2cc(-c3ccnc(NCc4cccc(C(F)(F)F)c4)n3)cc(N3CCOCC3)c2c1 [Compound 13, 4-(6-methoxy-4-morpholin-4-yl-2-naphthyl)-N-[3-(trifluoromethyl)benzyl]pyrimidin-2-amine]	–	98%
COc1ccc2cc(-c3ccnc(NCCc4ccccc4OC)n3)cc(N3CCOCC3)c2c1 [Compound 15, 4-(6-methoxy-4-morpholin-4-yl-2-naphthyl)-N-[2-(2-methoxyphenyl)ethyl]pyrimidin-2-amine]	–	90%
COc1ccc2cc(-c3ccnc(NCCc4cccc(OC)c4OC)n3)cc(N3CCOCC3)c2c1 [Compound 17, N-[2-(2,3-dimethoxyphenyl)ethyl]-4-(6-methoxy-4-morpholin-4-yl-2-naphthyl)pyrimidin-2-amine]	–	31%
COc1ccc2cc(-c3ccnc(NCCc4ccccn4)n3)cc(N3CCOCC3)c2c1 [Compound 19, 4-(6-methoxy-4-morpholin-4-yl-2-naphthyl)-N-(2-pyridin-2-ylethyl)pyrimidin-2-amine]	–	30%
COc1ccc2cc(-c3ccnc(NCc4ccccc4C)n3)cc(N3CCOCC3)c2c1 [Compound 20, 4-(6-methoxy-4-morpholin-4-yl-2-naphthyl)-N-(2-methylbenzyl)pyrimidin-2-amine]	–	66%
COc1cc(CCNc2nccc(-c3cc(N4CCOCC4)c4cc(OC)ccc4c3)n2)cc(OC)c1 [Compound 27, N-[2-(3,5-dimethoxyphenyl)ethyl]-4-(6-methoxy-4-morpholin-4-yl-2-naphthyl)pyrimidin-2-amine]	–	87%
CNc1nccc(-c2cc(NC(=O)CN3CCN(c4ccc(C(F)(F)F)cn4)CC3)c3cc(OC)ccc3c2)n1 [Compound 55, N-{7-methoxy-3-[2-(methylamino)pyrimidin-4-yl]-1-naphthyl}-2-{4-[5-(trifluoromethyl)pyridin-2-yl]piperazin-1-yl}acetamide]	65%	–
CNc1nccc(-c2cc(NC(=O)CN3CCN(Cc4ccc(Cl)cc4)CC3)c3cc(OC)ccc3c2)n1 [Compound 66, 2-[4-(4-chlorobenzyl)piperazin-1-yl]-N-{7-methoxy-3-[2-(methylamino)pyrimidin-4-yl]-1-naphthyl}acetamide]	–	69%
COc1ccc2cc(-c3ccnc(NCc4ccc(OC)c(OC)c4)n3)cc(NC(=O)OC(C)(C)C)c2c1 [Compound 87, tert-butyl (3-{2-[(3,4-dimethoxybenzyl)amino]pyrimidin-4-yl}-7-methoxy-1-naphthyl)carbamate]	–	45%
COc1ccc2cc(-c3ccnc(NCc4ccccn4)n3)cc(NC(=O)OC(C)(C)C)c2c1 [Compound 102, tert-butyl (7-methoxy-3-{2-[(pyridin-2-ylmethyl)amino]pyrimidin-4-yl}-1-naphthyl)carbamate]	–	43%
CNc1nccc(-c2cc(NC3CCN(c4cc(N)ncn4)CC3)c3cc(OC)ccc3c2)n1 [Compound 156, 4-(4-{[1-(6-aminopyrimidin-4-yl)piperidin-4-yl]amino}-6-methoxy-2-naphthyl)-N-methylpyrimidin-2-amine]	–	34%
CNc1nccc(-c2cc(NC3CCN(c4ncnc5scc(C)c45)CC3)c3cc(OC)ccc3c2)n1 [Compound 160, 4-(6-methoxy-4-{[1-(5-methylthieno[2,3-d]pyrimidin-4-yl)piperidin-4-yl]amino}-2-naphthyl)-N-methylpyrimidin-2-amine]	–	50%
CNc1nccc(-c2cc(NC3CCN(c4cc(Cl)nc(C)n4)CC3)c3cc(OC)ccc3c2)n1 [Compound 162, 4-(4-{[1-(6-chloro-2-methylpyrimidin-4-yl)piperidin-4-yl]amino}-6-methoxy-2-naphthyl)-N-methylpyrimidin-2-amine]	–	42%
